Consider six compounds from patent US20090252716A1, “METHODS FOR IDENTIFYING NUCLEAR RECEPTOR/LIGAND COMBINATIONS FOR TARGETING BRAIN TUMOR STEM CELLS AND FOR THEIR USE” (Clarian Health Partners, Inc. d/b/a Methodist Research …, priority 2008, published 2009).

For orientation: EC50 means the concentration at which the effect is half-maximal.

Molecules are shown by their SMILES.

One assay deals with U87MG tumorspheres. In words: Tumorsphere formation from U87MG cells in NBM. The format is cell-based, human. Conditions: NBM with B27, EGF+bFGF. The method, then:
FIG. 9B, first panel, illustrates cells of U87MG cultured in DMEM. Cells cultured in NBM with B27 supplement in the presence of EGF+bFGF developed into tumorspheres within 3-5 days (see FIG. 9A, middle panel).
(§1) Gliosphere culture. To generate gliospheres, the following standardized method was utilized. Briefly, U87MG and T98G glioblastoma cells were dissociated from DMEM cultures using trypsin-EDTA solution and reseeded in neurobasal medium (NBM) supplemented with B27 in the presence of 10 ng/ml bFGF and EGF. The cells (5×10^4/ml/well) were cultured in 12 well plates in 5% CO2-incubator at 37° C. with a medium change of every 2-3 days. The cells were photographed (200× and 400×) under phase contrast microscope (AX70, Olympus Optical, Japan) after 10-12 days. The primary human glioblastoma cells were also dissociated from DMEM using trypsin-EDTA. The cells were cultured (1×10^5 cells/ml/well) in neurobasal medium (NBM) supplemented with B27 in the presence of 10 ng/ml of bFGF and EGF in 12 well plates in 5% CO2-incubator at 37° C. The resulting tumorspheres were photographed under light microscope.

Assay [1] has as its system U87MG and T98G human glioma cells, their respective BTSC's, and CD133+ cells. The experiment in a line: Proliferation of glioma cells, BTSC's and CD133+ cells, result in words. The format is cell-based. The method, then:
(§2) The use of nuclear receptor agonists in the treatment of brain tumors was examined by testing the effect of the specific ligands on the proliferation of brain tumor and BTSC'S. Prior to studying the anti-tumor effect of melatonin, it was necessary to determine the viability of glioma and BTSC's in the cultures used in this study. […] Their proliferation was measured by WST-1 assay. The ligands for all six nuclear receptors induced anti-proliferative activity in brain tumor stem cells as well as human glioma cells. It was also noted that the selected nuclear receptor agonists induced anti-tumor activity in brain tumor stem cells and that the different agonists for the highly altered nuclear hormone receptors provided different levels of inhibition for brain tumor cells and BTSC's in cultures. As a result, the nuclear hormone receptors having altered expression and activation profile in BTSC can be selected to specifically target BTSC's. Additional information regarding the individual studies is provided below:
(§3) Proliferation assay. Proliferation of gliosphere cells was measured using WST-1 assay (Roche Applied Sciences, Indianapolis, Ind.) and ^3H thymidine uptake assay. Briefly, T98G and U87MG glioma and gliosphere cells were cultured in 96-well tissue culture plates (1×10^4/200 μl/well) in neurobasal medium with B27 serum supplement in the presence of 10 ng/ml EGF+bFGF and increasing doses of nuclear receptors in 5% CO2-incubator at 37° C. After 48 hrs, WST-1 reagent ([…]) was added and the absorbance was measured at 460 nm using 2100 microplate reader (Alpha Diagnostics Inc., San Antonio, Tex.) as a measure of viable cell count. This assay is based on the cleavage of the tetrazolium salt, WST-1, by mitochondrial dehydrogenases in viable cells and a decrease in OD corresponds to decrease in viable cell count. In some experiments, ^3H thymidine (0.5 μCi/ml) was added at 48 hours, the cells harvested after 72 hours using a Tomtech harvester 96 (Hamden, Conn., USA) and the amount of ^3H thymidine uptake counted on a Perkin Elmer Microbeta liquid scintillation counter to provide a measure of proliferation.

A further assay has as its system T98G human glioma cells. In words: WST-1 proliferation assay, T98G glioma cells. The format is cell-based. The conditions noted are these: anti-tumor activity, 48 hours, read-out: EC50, T98-glioma. The protocol: as §2
(§4) Cell culture. The U87MG and T98G brain tumor cell-lines, established from human glioblastoma (Ponten, et al., 1968) were obtained from American Type Culture Collection (ATCC, Manassas, Va.). The cells were cultured in Dulbecco's Modified Eagle Medium (DMEM) (Invitrogen, California, USA) supplemented with 10% FBS, 1 mM Sodium pyruvate, 100 U/ml penicillin G, 100 μg/ml Streptomycin, 2 mM glutamine, 1 mM MEM nonessential amino acids and 50 μM 2-mercaptoethanol in 5% CO2 incubator at 37° C. The cells were dissociated using 0.25% trypsin, 0.53 mM EDTA solution and sub-cultured once in 3-5 days. Primary brain tumor tissue/cells were also obtained from the tissue repository at Methodist Research Institute and cultured (1×10^5 cells/ml/well) in DMEM medium supplemented with 10% FBS and sub-cultured once in 10-12 days.
as §3, with “This assay is based on the cleavage of the tetrazolium salt, WST-1, by mitochondrial dehydrogenases in viable cells and a decrease in OD corresponds to decrease in viable cell count.” left out
On the technique in general: Tetrazolium dyes change colour on reduction, which living cells bring about.

For assay [2], the system named is T98G BTSC's (brain tumor stem cells). The experiment in a line: WST-1 proliferation assay, T98G BTSC's. The conditions noted are these: Homo sapiens, anti-tumor activity, 48 hours, read-out: EC50, T98-BTSC. The format is cell-based. The protocol: (§5) The use of nuclear receptor agonists in the treatment of brain tumors was examined by testing the effect of the specific ligands on the proliferation of brain tumor and BTSC'S. Prior to studying the anti-tumor effect of melatonin, it was necessary to determine the viability of glioma and BTSC's in the cultures used in this study. […] Their proliferation was measured by WST-1 assay. […] Additional information regarding the individual studies is provided below:
as §1
(§6) Proliferation assay. Proliferation of gliosphere cells was measured using WST-1 assay (Roche Applied Sciences, Indianapolis, Ind.) and ^3H thymidine uptake assay. […] After 48 hrs, WST-1 reagent ([…]) was added and the absorbance was measured at 460 nm using 2100 microplate reader (Alpha Diagnostics Inc., San Antonio, Tex.) as a measure of viable cell count. […] In some experiments, ^3H thymidine (0.5 μCi/ml) was added at 48 hours, the cells harvested after 72 hours using a Tomtech harvester 96 (Hamden, Conn., USA) and the amount of ^3H thymidine uptake counted on a Perkin Elmer Microbeta liquid scintillation counter to provide a measure of proliferation.

Another assay relates to T98G-CD133+ cells. The experiment in a line: WST-1 proliferation assay, T98G-CD133+ cells. The format is cell-based. The conditions noted are these: Homo sapiens, anti-tumor activity, 48 hours. The method, then:
as §2
(§7) Isolation and expansion of CD133+ BTSC: The CD133+ BTSC were isolated from human glioblastoma cells by magnetic bead technique using CD133 antibody (Miltenyi Biotec, Auburn, Calif., USA). The U87MG and T98G glioma cells and tumor spheres expanded as described above were dissociated by treatment with Trypsin-EDTA solution at 37° C. for 10 minutes. The cells (1×10^7 cells) were washed in cold sterile PBS, re-suspended in 100 μl blocking buffer (PBS, pH 7.2, 0.5% BSA, 2 mM EDTA) with 50 μl of FcR blocking reagents (Miltenyi Biotech, Auburn, Calif., USA) and incubated at 4° C. for 30 minutes. The cells were washed and re-suspended in 200 μl of anti-PE microbeads in the buffer and incubated at 4° C. for 30 minutes. The CD133+ cells were separated by passing through an LS column in the midi Macs separation unit. The column effluent was collected to provide a CD133 negative population. The columns were washed with buffer, removed from the Mac separation unit and placed in a sterile 15 ml tube. […] The cells obtained were counted and expanded in culture or used directly for the experiments described herein.
as §6

Another assay deals with U87MG human glioma cells. The experiment in a line: WST-1 proliferation assay, U87 glioma cells. The format is cell-based. Conditions: U-87 MG, anti-tumor activity, 48 hours. The protocol:
as §2, §4
as §3, with “This assay is based on the cleavage of the tetrazolium salt, WST-1, by mitochondrial dehydrogenases in viable cells and a decrease in OD corresponds to decrease in viable cell count.” left out

Assay [3] concerns U87 BTSC's (brain tumor stem cells). In words: WST-1 proliferation assay, U87 BTSC's. The conditions noted are these: Homo sapiens, anti-tumor activity, 48 hours. The format is cell-based. The method, then: as §5, §1, §6
Another assay concerns U87-CD133+ cells. In words: WST-1 proliferation assay, U87-CD133+ cells. The conditions noted are these: Homo sapiens, anti-tumor activity, 48 hours. The format is cell-based. The protocol:
as §2, §7, §6

The subject of a further assay is T98G tumorspheres. In words: Tumorsphere formation from T98G glioblastoma cells in NBM. The format is cell-based, human. The conditions noted are these: NBM with B27, EGF+bFGF. The protocol: Initially culture conditions were established for expanding BTSC's as tumorspheres from brain tumor cells in culture. […] The resulting tumorspheres increased substantially in size within 7 to 10 days. FIG. 1 illustrates typical glioblastoma cells cultured in DMEM supplemented with 10% FBS and the corresponding tumorspheres cultured in neurobasal medium (NBM) with B27 supplement and 10 ng/ml EGF+bFGF. The tumorspheres illustrated in FIG. 1 were photographed after 10 days (200×).
as §1

`CCCCCC=CC=C1C(=O)C=C[C@@H]1CC=CCCCC(=O)O` [15d-PGJ2, 15-deoxy Δ^12,14-prostaglandin J2]: the “tumorsphere size and number, U87MG” value in the assay with U87MG tumorspheres is “significantly decreased”. Moreover, the “proliferation of glioma cells and BTSC's” value in [1] is “inhibited the proliferation”.

For `CCCC(=O)SCCNC(=O)CCNC(=O)[C@H](O)C(C)(C)COP(=O)(O)OP(=O)(O)OC[C@H]1O[C@@H](n2cnc3c(N)ncnc32)[C@H](O)[C@@H]1OP(=O)(O)O` [Butyryl CoA], the concentration for a half-maximal effect (EC50) in the assay with T98G human glioma cells was 85 ± 5.59 µM; in assay [2], 85.5 ± 22.4 µM; with T98G-CD133+ cells it was 54.7 ± 5.76 µM; with U87MG human glioma cells, 20.3 ± 0.57 µM; in [3] it was 72.5 ± 1.57 µM; with U87-CD133+ cells, 17.6 ± 0.29 µM. Moreover, the “number and size of T98G tumorspheres” value with T98G tumorspheres was “significant and dose-dependent decrease”. Further, the “proliferation of glioma cells and BTSC's” value in assay [1] is given as “dose-dependent decrease in the proliferation”.

For the compound `Clc1ccc(-c2nc3sccn3c2/C=N/OCc2ccc(Cl)c(Cl)c2)cc1` [CITCO], the “number and size of T98G tumorspheres” value in the assay on T98G tumorspheres was “significant and dose-dependent decrease”. Moreover, the “proliferation of glioma cells and BTSC's” value in assay [1] is listed as “inhibits the proliferation”.

Consider `O=C(O)Cc1cccc(OCCCN(Cc2cccc(C(F)(F)F)c2Cl)CC(c2ccccc2)c2ccccc2)c1` [GW3965], for which the EC50 in the assay with T98G human glioma cells came out at 4.85 ± 1 µM; in assay [2], 12.2 ± 3.04 µM; with T98G-CD133+ cells it was 3.28 ± 0.64 µM; in the assay on U87MG human glioma cells, 4.22 ± 0.23 µM; in [3] it was 1.55 ± 0.43 µM; with U87-CD133+ cells, 2.96 ± 0.21 µM. Moreover, in the assay on T98G tumorspheres, the “number and size of T98G tumorspheres” value is “significant and dose-dependent decrease”. In assay [1], the “proliferation of glioma cells and BTSC's” value is reported as “inhibits the proliferation”.

On to `COc1ccc2[nH]cc(CCNC(C)=O)c2c1` [Melatonin], for which the EC50 in the assay with T98G human glioma cells turned out to be 31 ± 12 µM; in assay [2], 44.7 ± 6.18 µM; in the assay with T98G-CD133+ cells, 2.45 ± 0.43 µM; in the assay with U87MG human glioma cells, 18.66 ± 0.18 µM; in [3], 7.91 ± 1.34 µM; in the assay on U87-CD133+ cells it was 2.6 ± 0.25 µM. Besides, the “number and size of T98G tumorspheres” value with T98G tumorspheres is “significant and dose-dependent decrease”. Further, the “proliferation of glioma cells and BTSC's” value in [1] was “inhibits the proliferation”.

For `CO[C@H]1/C=C/O[C@@]2(C)Oc3c(C)c(O)c4c(O)c(c(/C=N/N5CCN(C)CC5)c(O)c4c3C2=O)NC(=O)/C(C)=C\C=C\[C@H](C)[C@H](O)[C@@H](C)[C@@H](O)[C@@H](C)[C@H](OC(C)=O)[C@@H]1C` [Rifampicin], the EC50 in the assay on T98G human glioma cells came out at 12.8 ± 1.97 µM; in the assay with T98G-CD133+ cells it was 1.99 ± 0.47 µM; in the assay with U87MG human glioma cells, 25.4 ± 4 µM; with U87-CD133+ cells, 1.2 ± 0.2 µM.
